Where two headings read alike, the source gives them in different places.
Tests used:
LOX IMVI = experiment: NCI-60 growth inhibition: LOX IMVI (Melanoma); assay type: cell-based, human; settings: Homo sapiens
HOP-92 = experiment: NCI-60 growth inhibition: HOP-92 (Non-Small-Cell Lung Cancer); assay type: cell-based, human; settings: Homo sapiens
OVCAR-3 = experiment: NCI-60 growth inhibition: OVCAR-3 (Ovarian Cancer); assay type: cell-based, human; settings: Homo sapiens
NCI-H460 = experiment: NCI-60 growth inhibition: NCI-H460 (Non-Small-Cell Lung Cancer); assay type: cell-based, human; settings: Homo sapiens
MCF7 = experiment: NCI-60 growth inhibition: MCF7 (Breast Cancer); assay type: cell-based, human; settings: Homo sapiens
SF-268 = experiment: NCI-60 growth inhibition: SF-268 (CNS Cancer); assay type: cell-based, human; settings: Homo sapiens
DU-145 = experiment: NCI-60 growth inhibition: DU-145 (Prostate Cancer); assay type: cell-based, human; settings: Homo sapiens
SK-MEL-28 = experiment: NCI-60 growth inhibition: SK-MEL-28 (Melanoma); assay type: cell-based, human; settings: Homo sapiens
OVCAR-4 = experiment: NCI-60 growth inhibition: OVCAR-4 (Ovarian Cancer); assay type: cell-based, human; settings: Homo sapiens
MOLT-4 = experiment: NCI-60 growth inhibition: MOLT-4 (Leukemia); assay type: cell-based, human; settings: Homo sapiens
SF-539 = experiment: NCI-60 growth inhibition: SF-539 (CNS Cancer); assay type: cell-based, human; settings: Homo sapiens
NCI-H23 = experiment: NCI-60 growth inhibition: NCI-H23 (Non-Small-Cell Lung Cancer); assay type: cell-based, human; settings: Homo sapiens
CCRF-CEM = experiment: NCI-60 growth inhibition: CCRF-CEM (Leukemia); assay type: cell-based, human; settings: Homo sapiens
IGROV1 = experiment: NCI-60 growth inhibition: IGROV1 (Ovarian Cancer); assay type: cell-based, human; settings: Homo sapiens, IGROV-1
HT29 = experiment: NCI-60 growth inhibition: HT29 (Colon Cancer); assay type: cell-based, human; settings: Homo sapiens, HT-29
OVCAR-5 = experiment: NCI-60 growth inhibition: OVCAR-5 (Ovarian Cancer); assay type: cell-based, human; settings: Homo sapiens
SK-MEL-2 = experiment: NCI-60 growth inhibition: SK-MEL-2 (Melanoma); assay type: cell-based, human; settings: Homo sapiens
TK-10 = experiment: NCI-60 growth inhibition: TK-10 (Renal Cancer); assay type: cell-based, human; settings: Homo sapiens
HS 578T = experiment: NCI-60 growth inhibition: HS 578T (Breast Cancer); assay type: cell-based, human; settings: Homo sapiens
A498 = experiment: NCI-60 growth inhibition: A498 (Renal Cancer); assay type: cell-based, human; settings: Homo sapiens
RPMI-8226 = experiment: NCI-60 growth inhibition: RPMI-8226 (Leukemia); assay type: cell-based, human; settings: Homo sapiens
CAKI-1 = experiment: NCI-60 growth inhibition: CAKI-1 (Renal Cancer); assay type: cell-based, human; settings: Homo sapiens
MALME-3M = experiment: NCI-60 growth inhibition: MALME-3M (Melanoma); assay type: cell-based, human; settings: Homo sapiens
HCT-116 = experiment: NCI-60 growth inhibition: HCT-116 (Colon Cancer); settings: Homo sapiens, HCT-116
[1] = tested on: MV4-11 cell line (myelomonocytic leukemia); settings: MV4-11 cells; for LD50, 7AAD (μM) 24 h / LD50, Alamar blue (μM) 24 h / LD50, YOPRO (μM) 24 h: MMB-TDZD analogs (Table 2); for LD50: values in text
MDA-MB-231/ATCC = experiment: NCI-60 growth inhibition: MDA-MB-231/ATCC (Breast Cancer); assay type: cell-based, human; settings: Homo sapiens
BT-549 = experiment: NCI-60 growth inhibition: BT-549 (Breast Cancer); assay type: cell-based, human; settings: Homo sapiens
SW-620 = experiment: NCI-60 growth inhibition: SW-620 (Colon Cancer); assay type: cell-based, human; settings: Homo sapiens
SK-MEL-5 = experiment: NCI-60 growth inhibition: SK-MEL-5 (Melanoma); assay type: cell-based, human; settings: Homo sapiens
K-562 = experiment: NCI-60 growth inhibition: K-562 (Leukemia); assay type: cell-based, human; settings: Homo sapiens, K562
T-47D = experiment: NCI-60 growth inhibition: T-47D (Breast Cancer); assay type: cell-based, human; settings: Homo sapiens, T47D
SNB-75 = experiment: NCI-60 growth inhibition: SNB-75 (CNS Cancer); assay type: cell-based, human; settings: Homo sapiens
786-0 = experiment: NCI-60 growth inhibition: 786-0 (Renal Cancer); assay type: cell-based, human; settings: Homo sapiens
UACC-257 = experiment: NCI-60 growth inhibition: UACC-257 (Melanoma); assay type: cell-based, human; settings: Homo sapiens
SN12C = experiment: NCI-60 growth inhibition: SN12C (Renal Cancer); assay type: cell-based, human; settings: Homo sapiens
NCI-H522 = experiment: NCI-60 growth inhibition: NCI-H522 (Non-Small-Cell Lung Cancer); settings: Homo sapiens, NCI-H522
UO-31 = experiment: NCI-60 growth inhibition: UO-31 (Renal Cancer); assay type: cell-based, human; settings: Homo sapiens
RXF 393 = experiment: NCI-60 growth inhibition: RXF 393 (Renal Cancer); assay type: cell-based, human; settings: Homo sapiens
M14 = experiment: NCI-60 growth inhibition: M14 (Melanoma); assay type: cell-based, human; settings: Homo sapiens
ACHN = experiment: NCI-60 growth inhibition: ACHN (Renal Cancer); assay type: cell-based, human; settings: Homo sapiens
COLO 205 = experiment: NCI-60 growth inhibition: COLO 205 (Colon Cancer); assay type: cell-based, human; settings: Homo sapiens
MDA-MB-435 = experiment: NCI-60 growth inhibition: MDA-MB-435 (Melanoma); assay type: cell-based, human; settings: Homo sapiens
UACC-62 = experiment: NCI-60 growth inhibition: UACC-62 (Melanoma); assay type: cell-based, human; settings: Homo sapiens
OVCAR-8 = experiment: NCI-60 growth inhibition: OVCAR-8 (Ovarian Cancer); assay type: cell-based, human; settings: Homo sapiens
HCT-15 = experiment: NCI-60 growth inhibition: HCT-15 (Colon Cancer); assay type: cell-based, human; settings: Homo sapiens
EKVX = experiment: NCI-60 growth inhibition: EKVX (Non-Small-Cell Lung Cancer); assay type: cell-based, human; settings: Homo sapiens
SNB-19 = experiment: NCI-60 growth inhibition: SNB-19 (CNS Cancer); assay type: cell-based, human; settings: Homo sapiens
MDA-MB-468 = experiment: NCI-60 growth inhibition: MDA-MB-468 (Breast Cancer); assay type: cell-based, human; settings: Homo sapiens
PC-3 = experiment: NCI-60 growth inhibition: PC-3 (Prostate Cancer); assay type: cell-based, human; settings: Homo sapiens
[2] = tested on: human leukemia cell lines; experiment: NCI-60 growth inhibition, leukemia cell lines
SR = experiment: NCI-60 growth inhibition: SR (Leukemia); assay type: cell-based, human; settings: Homo sapiens
HL-60(TB) = experiment: NCI-60 growth inhibition: HL-60(TB) (Leukemia); assay type: cell-based, human; settings: Homo sapiens, HL-60
U251 = experiment: NCI-60 growth inhibition: U251 (CNS Cancer); assay type: cell-based, human; settings: Homo sapiens, U-251

C=C1C(=O)O[C@H]2[C@H]1CC/C(COC(=O)NCc1ccc(Cn3c(=O)sn(-c4ccccc4)c3=O)cc1)=C\CC[C@@]1(C)O[C@@H]21 [BSK-197]
GI50 (LOX IMVI): 1620 nM | GI50 (HOP-92): 1820 nM | GI50 (OVCAR-3): 1680 nM | GI50 (NCI-H460): 3670 nM | GI50 (MCF7): 1590 nM | GI50 (SF-268): 2210 nM | GI50 (DU-145): 1710 nM | GI50 (SK-MEL-28): 1700 nM | GI50 (OVCAR-4): 2740 nM | GI50 (MOLT-4): 2200 nM | GI50 (SF-539): 1570 nM | GI50 (NCI-H23): 3550 nM | GI50 (CCRF-CEM): 830 nM | GI50 (IGROV1): 2090 nM | GI50 (HT29): 2150 nM | GI50 (OVCAR-5): 2510 nM | GI50 (SK-MEL-2): 2390 nM | GI50 (TK-10): 2210 nM | GI50 (HS 578T): 4140 nM | GI50 (A498): 3910 nM | GI50 (RPMI-8226): 2030 nM | GI50 (CAKI-1): 2490 nM | GI50 (MALME-3M): 2090 nM | GI50 (HCT-116): 1520 nM | LD50, 7AAD (μM) 24 h [1]: 1.26 µM | LD50, Alamar blue (μM) 24 h [1]: 2.02 µM | LD50, YOPRO (μM) 24 h [1]: 1.17 µM | LD50 [1]: 980 nM | GI50 (MDA-MB-231/ATCC): 1710 nM | GI50 (BT-549): 2140 nM | GI50 (SW-620): 1910 nM | GI50 (SK-MEL-5): 3240 nM | GI50 (K-562): 1800 nM | GI50 (T-47D): 1980 nM | GI50 (SNB-75): 2370 nM | GI50 (786-0): 1810 nM | GI50 (UACC-257): 1860 nM | GI50 (SN12C): 2130 nM | GI50 (NCI-H522): 1740 nM | GI50 (UO-31): 1680 nM | GI50 (RXF 393): 1750 nM | GI50 (M14): 1800 nM | GI50 (ACHN): 1640 nM | GI50 (COLO 205): 1770 nM | GI50 (MDA-MB-435): 2070 nM | GI50 (UACC-62): 2040 nM | GI50 (OVCAR-8): 2830 nM | GI50 (HCT-15): 1940 nM | GI50 (EKVX): 1850 nM | GI50 (SNB-19): 4260 nM | GI50 (MDA-MB-468; MDA-MB-468): 1170 nM | GI50 (PC-3): 2360 nM

C=C1C(=O)O[C@H]2[C@H]1CC/C(COC(=O)NCc1ccc(Cn3c(=O)sn(CCCI)c3=O)cc1)=C\CC[C@@]1(C)O[C@@H]21 [BSK-259]
GI50 (LOX IMVI): 1400 nM | GI50 (HOP-92): 1220 nM | GI50 ([2]; Homo sapiens): 280 to 900 nM | potency against leukemia cell lines (GI50 <1.0) ([2]; NCI panel): high potency against all 6 leukemia cell lines | GI50 (OVCAR-3): 1190 nM | GI50 (NCI-H460): 3200 nM | GI50 (MCF7): 1410 nM | GI50 (SR): 280 nM | GI50 (SF-268): 2540 nM | GI50 (DU-145): 1730 nM | GI50 (HL-60(TB)): 300 nM | GI50 (SK-MEL-28): 1920 nM | GI50 (OVCAR-4): 1460 nM | GI50 (MOLT-4): 290 nM | GI50 (SF-539): 1710 nM | GI50 (NCI-H23): 2110 nM | GI50 (CCRF-CEM): 310 nM | GI50 (IGROV1): 1750 nM | GI50 (HT29): 1740 nM | GI50 (OVCAR-5): 1850 nM | GI50 (SK-MEL-2): 2420 nM | GI50 (TK-10): 1710 nM | GI50 (HS 578T): 3170 nM | GI50 (A498): 4850 nM | GI50 (RPMI-8226): 900 nM | GI50 (CAKI-1): 1700 nM | GI50 (MALME-3M): 1390 nM | GI50 (HCT-116): 1050 nM | fold more cytotoxic than PTL [1]: 273 fold | fold more cytotoxic than TDZD-8 [1]: 329 fold | LD50, 7AAD (μM) 24 h [1]: 0.01 µM | LD50, Alamar blue (μM) 24 h [1]: 0.30 µM | LD50, YOPRO (μM) 24 h [1]: 0.01 µM | LD50 [1]: 10 nM | GI50 (MDA-MB-231/ATCC): 1750 nM | GI50 (BT-549): 1380 nM | GI50 (SW-620): 1400 nM | GI50 (SK-MEL-5): 1910 nM | GI50 (K-562): 340 nM | GI50 (T-47D): 1790 nM | GI50 (U251): 1750 nM | GI50 (786-0): 1680 nM | GI50 (UACC-257): 1790 nM | GI50 (SN12C): 1570 nM | GI50 (NCI-H522): 1070 nM | GI50 (UO-31): 1520 nM | GI50 (RXF 393): 1520 nM | GI50 (M14): 1740 nM | GI50 (ACHN): 1700 nM | GI50 (COLO 205): 1950 nM | GI50 (MDA-MB-435): 1680 nM | GI50 (UACC-62): 1410 nM | GI50 (OVCAR-8): 3040 nM | GI50 (HCT-15): 1890 nM | GI50 (EKVX): 2090 nM | GI50 (SNB-19): 3120 nM | GI50 (MDA-MB-468; MDA-MB-468 (Breast Cancer), read-out: GI50): 1540 nM | GI50 (PC-3): 1940 nM
